How the values were obtained:
[1] = test system: C. albicans strains CAI4 and M70; assay: Isolation of spontaneous caspofungin-resistant mutants by direct selection on solid media containing caspofungin; format: cell-based, Candida albicans; conditions: both strains CAI4 and M70; YPD plates with 4 μg/ml caspofungin (forty times the MIC)
Procedure: (§1) Spontaneous mutants of C. albicans strains CAI4 and M70 resistant to caspofungin were isolated by direct selection on solid growth media containing 4 μg/ml (forty times the MIC) caspofungin. The frequency of formation of spontaneous caspofungin-resistant derivatives for both strains was <10^−8 mutants per viable cell. For both strains, the formation of rare shrunken slow-growing colonies on the plates with caspofungin was observed. […] After prolonged incubation for more than 10 days, a small fraction of small shrunken colonies gave rise to smooth fast-growing derivatives which were able to propagate on caspofungin-containing media after reinoculation. Only one such derivative per individual plate/culture was saved and used for further analysis. In total, 35 and 50 isolates with reduced susceptibility to caspofungin were isolated for strains CAI4 and M70, respectively. […] Details of the isolation procedure are set forth in Example 2.
Spontaneous caspofungin-resistant mutants of C. albicans strains CAI4 and M70 were isolated by plating 100 ul (˜10^8 cells) of an 18 h liquid YPD culture on YPD plates containing 4 μg/ml caspofungin. Serial dilutions of the overnight cultures were plated on the YPD plates without antibiotic selection to precisely determine starting colony counts. Selection plates were incubated for 10-14 days at 30° C. […]

[2] = test system: C. albicans strains CAI4 and M70, laboratory-derived isolates with reduced susceptibility; assay: In vitro caspofungin susceptibility testing, liquid microbroth dilution assay in RPMI-1640 (NCCLS M27-A2); format: cell-based; conditions: Candida albicans; all laboratory-derived isolates (35 from CAI4, 50 from M70) selected on 4 μg/ml caspofungin
Procedure: as §1
C. albicans strain CAI4 was purchased from ATCC (ATCC, Manassas, Va.). C. albicans strain M70 was from the Merck culture collection (MRL, Rahway, N.J.). Strains were grown on yeast extract-peptone-dextrose (YPD) medium (1% yeast extract, 2% Bacto Peptone, 2% dextrose). For growth of strain CAI4, YPD medium was supplemented by uridine (Sigma-Aldrich, St. Louis, Mo.) at 25 mg/ml. Caspofungin (Merck, Rahway, N.J.) was added directly to YPD at 4 μg/ml. […]

## CC[C@H](C)C[C@H](C)CCCCCCCCC(=O)N[C@H]1C[C@@H](O)[C@@H](NCCN)NC(=O)[C@@H]2[C@@H](O)CCN2C(=O)[C@H]([C@H](O)CCN)NC(=O)[C@H]([C@H](O)[C@@H](O)c2ccc(O)cc2)NC(=O)[C@@H]2C[C@@H](O)CN2C(=O)[C@H]([C@@H](C)O)NC1=O [caspofungin]
[1]
  frequency of formation of spontaneous caspofungin-resistant derivatives: < 10^−8 mutants per viable cell
[2]
  MIC: > 16 µg/mL
